The text below walks through data of PMC9319179, “Heterologous Expression and Characterization of Plant Wax Ester Producing Enzymes” (Metabolites, 2022).

The target in assay [1] is T1, maize WS (NP_001147171.1) (Zea mays, UniProt B6SLT2).
T1 construct: full-length ORF, C-terminal His6 tag, yeast codon-optimized synthetic ORF, expressed in S. cerevisiae H1246
T1 sequence (B6SLT2 1-345): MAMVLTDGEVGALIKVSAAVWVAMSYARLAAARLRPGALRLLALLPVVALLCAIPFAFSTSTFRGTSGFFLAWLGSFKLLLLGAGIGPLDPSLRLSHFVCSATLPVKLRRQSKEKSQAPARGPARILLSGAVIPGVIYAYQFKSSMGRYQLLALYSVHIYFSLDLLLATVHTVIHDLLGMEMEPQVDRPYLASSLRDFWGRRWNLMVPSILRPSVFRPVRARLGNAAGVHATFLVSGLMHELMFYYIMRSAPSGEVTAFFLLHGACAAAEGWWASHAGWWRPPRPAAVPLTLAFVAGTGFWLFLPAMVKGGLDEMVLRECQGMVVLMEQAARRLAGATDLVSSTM
The experiment in a line: in vivo feeding of expressing yeast, ethyl/benzyl esters by GC-MS. Format: cell-based. The settings on record: S. cerevisiae H1246; fed fatty acids (14:1 preferred acyl), 20 °C; acyl donor formed in vivo.

For the next assay, the target named is T2, Arabidopsis At5g55340 WS (Arabidopsis thaliana, UniProt Q9FJ76).
T2 construct: gene AT5
T2 sequence (Q9FJ76 1-333): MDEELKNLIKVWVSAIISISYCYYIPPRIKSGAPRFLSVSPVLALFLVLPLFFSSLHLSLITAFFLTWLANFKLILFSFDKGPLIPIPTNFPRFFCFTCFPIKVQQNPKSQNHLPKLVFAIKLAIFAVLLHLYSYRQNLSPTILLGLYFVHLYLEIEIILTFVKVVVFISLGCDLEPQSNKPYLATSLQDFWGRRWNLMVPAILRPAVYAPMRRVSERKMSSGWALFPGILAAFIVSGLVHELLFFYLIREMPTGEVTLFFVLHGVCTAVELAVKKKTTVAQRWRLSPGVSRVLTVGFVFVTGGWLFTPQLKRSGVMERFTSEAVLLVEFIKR
The experiment in a line: in vivo feeding of expressing yeast, wax esters by TLC and GC-MS. Format: cell-based. The settings on record: S. cerevisiae H1246; 50 uM alcohol with fed fatty acid (13:0 preferred), 20 °C; acyl donor formed in vivo.

As for `CCO` [ethanol], in assay [1], the “in vivo feeding of expressing yeast, ethyl/benzyl esters by GC-MS” value is “ability to assemble esters with ethanol, benzyl alcohol, and phenylethyl alcohol”.

Turning to `OCc1ccccc1` [benzyl alcohol], in assay [1], the “in vivo feeding of expressing yeast, ethyl/benzyl esters by GC-MS” value was “ability to assemble esters with ethanol, benzyl alcohol, and phenylethyl alcohol”.

Regarding `CCCCCCCCCCCCCO` [C13:0, C13:0 fatty alcohol], the “in vivo feeding of expressing yeast, wax esters by TLC and GC-MS” value on Arabidopsis At5g55340 WS is “apparent optimum at 13-carbon chain length for both the fatty acid and fatty alcohol”.
